Measured values published in patent publication US20110263647A1 (AMGEN INC., priority 2009, published 2011).
Structures can show the parent of a compound that is named as a salt. Where two headings read alike, the source gives them in different places.

What was measured:
[1] = test system: U87MG tumors; assay: U87MG xenograft tumor growth model; format: in vivo, Athymic nude mice; settings: oral 10, 30, 60 and 100 mg/kg/day; 13 days (Example 2), 10 days and 17 days (Example 18)
Procedure: The effect of PKB inhibition on tumor growth in vivo was assessed in an established U87MG xenograft model for Examples 2 and 18. Athymic nude mice bearing U87MG tumors (approximately 200 mm^3) in the right flank were treated with the compound orally at the dosage of 10, 30, 60, and 100 mg/kg/day (n=10) for 13 days (Example 2) and for 10 days and 17 days (Example 18). Tumor volume and body weight were measured twice per week. Data were expressed as means plus or minus standard errors and plotted as a function of time. Statistical significance of the effect was evaluated by Repeated Measures Analysis of Variance (RMANOVA) followed by Scheffe post hoc testing for multiple comparisons.

[2] = target: T1, CYP2D6 (Homo sapiens, UniProt P10635); assay: CYP2D6 inhibition assay (bufuralol, pooled human liver microsomes); format: in vitro ADME; settings: pH 7.4, probe bufuralol (5 μM), test compound 3 μM, human liver microsomes 0.25 mg/mL
T1 construct: tissue XenoTech LLC Lot 0610351; host or cells: pooled human liver microsomes
T1 sequence (P10635 whole entry): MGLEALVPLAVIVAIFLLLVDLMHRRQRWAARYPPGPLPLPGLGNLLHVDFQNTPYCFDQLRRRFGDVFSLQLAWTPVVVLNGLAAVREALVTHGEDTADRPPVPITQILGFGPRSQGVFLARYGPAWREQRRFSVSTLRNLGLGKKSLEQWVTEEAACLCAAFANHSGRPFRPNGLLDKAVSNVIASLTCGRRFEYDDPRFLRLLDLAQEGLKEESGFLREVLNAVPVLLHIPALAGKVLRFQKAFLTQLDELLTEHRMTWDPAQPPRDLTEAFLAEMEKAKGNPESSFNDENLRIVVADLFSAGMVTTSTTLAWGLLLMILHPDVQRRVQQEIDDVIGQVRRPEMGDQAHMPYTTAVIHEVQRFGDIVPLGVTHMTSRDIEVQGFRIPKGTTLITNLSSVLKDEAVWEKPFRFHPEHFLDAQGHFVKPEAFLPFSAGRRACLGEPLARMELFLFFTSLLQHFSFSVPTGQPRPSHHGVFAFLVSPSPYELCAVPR
Procedure: Midazolam was obtained from BD Gentest (Waltham, Mass.); 1′ hydroxy midazolam and 1-hydroxy bufuralol maleate were obtained from Ultrafine Chemicals (Manchester, UK); bufuralol HCl, ketoconazole, quinidine, potassium phosphate, and NADPH were obtained from Sigma (St. Louis, Mo.). Test compounds were prepared at 10 mM concentration in DMSO (Mallinckrodt Inc., St. Louis, Mo.). NADPH was prepared at 10 mM concentration in a pH 7.4 buffer (8.3 mg/mL 66.7 mM potassium phosphate). Midazolam was prepared at 1 mM concentration in deionized water (Amgen, Thousand Oaks, Calif.), and bufuralol was prepared at 2 mM concentration in deionized water. A stock solution of ketoconazole was prepared at 37 mM concentration in DMSO, and quinidine was prepared at 500 uM concentration in DMSO. Formic acid in acetonitrile (0.05%, ACN) was used as a quench solution (Sigma-Aldrich, St. Louis, Mo.). All solvents used for LC/MS were of chromatographic grade. Pooled human liver microsomes (Lot 0610351) were purchased from XenoTech LLC, (Lenexa, Kans.).
Pooled human liver microsomes (0.25 mg/mL) were incubated at 37° C. in a phosphate buffer (66.7 mM potassium phosphate at pH 7.4) with the selective CYP2D6 substrate bufuralol at a concentration of 5 μM in the presence and absence of test compound (3 μM). The reaction was started with the addition of NADPH (1 mM final concentration). The reaction was stopped after 10 minutes by addition of formic acid in acetonitrile. 1-Hydroxybufuralol metabolite formation was measured by an HPLC MS detection method (mobile phases for HPLC were: 0.1% AcOH in 5% MeOH, and 0.1% AcOH in 95% MeOH; the HPLC column was an Onyx Monolithic C18 CHO-7645 HPLC column from Phenomenex; Shimadzu LC-10ADVP equipped Biomek FX Liquid handling system and CTC Analytics PAL well auto-sampler; Mass spectrometer: Applied Biosystems API 3000 using Analyst 1.4.1 software). Inhibition was determined by the ratio of the amount of 1-hydroxy bufuralol metabolite formed metabolite in the presence of test compound to the amount of metabolite in the absence of test compound.

[3] = In vivo pharmacokinetics, IV and oral gavage; set-up: species or system male Sprague-Dawley rats; settings: rat; for FPO: Table 5; for Fpo (%): Table 6; for clearance / AUC(0-t) / Cmax / Vd: male, Sprague-Dawley, plasma; for Vd: read-out: Vss
Procedure, shortened: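 Male Sprague-Dawley rats (n=3 per route) dosed 2 mg/kg IV in DMSO (fed) or 5 mg/kg by oral gavage in 1% Tween 80/2% HPMC, pH 2.0 (fasted). Serial plasma samples to 16 h quantified by LC-MS/MS. CL, Vss, AUC, t1/2 and %F derived by noncompartmental analysis.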

[4] = IV 2 mg/kg, read-out: IV AUClast
[5] = PO 5 mg/kg, read-out: Oral AUClast
[6] = PO 5 mg/kg, read-out: Oral Cmax

| Structure (SMILES) | inhibition at 10 min, 3 μM [2] [%] | FPO ([3]; PO 5 mg/kg, IV 2 mg/kg) [%] | Fpo (%) ([3]; PO 5 mg/kg, IV 2 mg/kg) | clearance ([3]; IV 2 mg/kg) [L/h/kg] | AUC(0-t) [3, 4] [µg·h/mL] | Cmax ([3]; IV 2 mg/kg, read-out: IV Cmax) [µg/mL] | Vd ([3]; IV 2 mg/kg) [L/kg] | AUC(0-t) [3, 5] [µg·h/mL] | Cmax [3, 6] [µg/mL] | tumor growth inhibition [1] |
| --- | --- | --- | --- | --- | --- | --- | --- | --- | --- | --- |
| C[C@@H](c1ccc(C(F)(F)F)cc1)[C@H](N)CNc1ncc(-c2ccc3cnc(F)cc3c2)s1 [Example 10, N-((2S,3S)-2-Amino-3-(4-(trifluoromethyl)phenyl)butyl)-5-(3-fluoroisoquinolin-6-yl)thiazol-2-amine] | 19 | 61 | 52 | 0.752 | 2.04 | 0.426 | 7.17 | 3.1 | 0.316 |  |
| N[C@H](CNc1ncc(-c2ccc3cnc(F)cc3c2)s1)CN1CCC(C(F)(F)F)CC1 [Example 25, N—((R)-2-Amino-3-(4-(trifluoromethyl)piperidin-1-yl)propyl)-5-(3-fluoroisoquinolin-6-yl)thiazol-2-amine] | 51 | 55 | 34 | 1.8 | 1.1 | 0.396 | 9.88 | 1.51 | 0.058 |  |
| N[C@H](CNc1ncc(-c2ccc3cnc(F)cc3c2)s1)[C@@H](CO)c1ccc(C(F)(F)F)cc1 [Example 33, (2S,3S)-3-Amino-4-(5-(3-fluoroisoquinolin-6-yl)thiazol-2-ylamino)-2-(4-(trifluoromethyl)phenyl)butan-1-ol] | 49 | 28 | 28 | 0.541 | 3.13 | 0.803 | 3.41 | 2.15 | 0.268 |  |
| N[C@H](CCc1ncc(-c2ccc3cnc(F)cc3c2)s1)[C@@H](O)c1ccc(C(F)(F)F)cc1 [Example 36, (1S,2R)-2-Amino-4-(5-(3-fluoroisoquinolin-6-yl)thiazol-2-yl)-1-(4-(trifluoromethyl)phenyl)butan-1-ol trifluoroacetate] | 27 | 64 | 66 | 0.877 | 1.6 | 0.21 | 14.4 | 2.56 | 0.206 |  |
| CC(F)(F)c1ccc([C@H](O)[C@H](N)CNc2ncc(-c3ccc4cnc(F)cc4c3)s2)cc1 [Example 38, (1S,2R)-2-Amino-1-(4-(1,1-difluoroethyl)phenyl)-3-((5-(3-fluoro-6-isoquinolinyl)-1,3-thiazol-2-yl)amino)-1-propanol trifluoroacetate] | 44 | 36 | 45 | 0.512 | 3.01 | 0.473 | 9.48 | 2.73 | 0.1 |  |
| N[C@H](CNc1ncc(-c2ccc3cnc(F)cc3c2)s1)Cc1ccc(Cl)c(F)c1 [Example 44, (2S)-3-(4-Chloro-3-fluorophenyl)-N-1-(5-(3-fluoro-6-isoquinoliny)-1,3-thiazol-2-yl)-1-2-propanediamine] | 42 | 65 | 67 | 0.492 | 2.03 | 0.292 | 11.4 | 3.29 | 0.261 |  |

More lines, main results first:

| inhibition at 10 min, 3 μM [2] [%] | FPO ([3]; PO 5 mg/kg, IV 2 mg/kg) [%] | Fpo (%) ([3]; PO 5 mg/kg, IV 2 mg/kg) | clearance ([3]; IV 2 mg/kg) [L/h/kg] | AUC(0-t) [3, 4] [µg·h/mL] | Cmax ([3]; IV 2 mg/kg, read-out: IV Cmax) [µg/mL] | Vd ([3]; IV 2 mg/kg) [L/kg] | AUC(0-t) [3, 5] [µg·h/mL] | Cmax [3, 6] [µg/mL] | Structure (SMILES) | tumor growth inhibition [1] |
| --- | --- | --- | --- | --- | --- | --- | --- | --- | --- | --- |
| 53 | 40 | 57 | 0.728 | 2.37 | 0.531 | 5.19 | 2.38 | 0.302 | N[C@H](CNc1ncc(-c2ccc3cnc(F)cc3c2)s1)Cc1ccc(C(F)(F)F)nc1 [Example 2, (2S)—N-(5-(3-Fluoro-6-isoquinolinyl)-1,3-thiazol-2-yl)-3-(6-(trifluoromethyl)-3-pyridinyl)-1,2-propanediamine] | Dose dependent tumor growth inhibition |
| 44 | 4 | 65 | 1.3 | 1.53 | 0.959 | 2.59 | 0.165 | 0.025 | N[C@H](CNc1ncc(-c2ccc3cnc(F)cc3c2)s1)Cc1ccc(C(F)(F)F)cc1 [Example 4, N—((S)-2-Amino-3-(4-(trifluoromethyl)phenyl)propyl)-5-(3-fluoroisoquinolin-6-yl)thiazol-2-amine trifluoroacetate] |  |
| 23 | 42 | 47 | 1.33 | 1.44 | 0.432 | 6.22 | 1.5 | 0.216 | CC(F)(F)c1ccc(C[C@H](N)CNc2ncc(-c3ccc4cnc(F)cc4c3)s2)cn1 [Example 7, N—((S)-2-Amino-3-(6-(1,1-difluoroethyl)pyridin-3-yl)propyl)-5-(3-fluoroisoquinolin-6-yl)thiazol-2-amine] |  |
| 75 | 40 | 48 | 1.06 | 1.64 | 0.422 | 8.08 | 1.64 | 0.233 | COCc1nc(NC[C@@H](N)Cc2ccc(C(F)(F)F)nc2)sc1-c1ccc2cnc(F)cc2c1 [Example 18, N—((S)-2-Amino-3-(6-(trifluoromethyl)pyridin-3-yl)propyl)-5-(3-fluoroisoquinolin-6-yl)-4-(methoxymethyl)thiazol-2-amine] | Dose dependent tumor growth inhibition |
| 71 | 103 | 85 | 2.71 | 0.709 | 0.165 | 15.3 | 1.82 | 0.228 | CC(F)(F)c1ccc(C[C@H](N)CCc2ncc(-c3ccc4cnc(F)cc4c3)s2)cn1 [Example 50] |  |
